Data: PMC4672351, “Drug-Drug Interaction Potentials of Tyrosine Kinase Inhibitors via Inhibition of UDP-Glucuronosyltransferases” (Scientific Reports, 2015)
“And” between values parts separate entries of the source, which are not always exact repeats. Equal values may be shown once.

Assays:
[1] = biological target: T1, UGT1A1 (Homo sapiens, UniProt P22309); conditions: SN-38 substrate
T1 sequence (P22309 26-533): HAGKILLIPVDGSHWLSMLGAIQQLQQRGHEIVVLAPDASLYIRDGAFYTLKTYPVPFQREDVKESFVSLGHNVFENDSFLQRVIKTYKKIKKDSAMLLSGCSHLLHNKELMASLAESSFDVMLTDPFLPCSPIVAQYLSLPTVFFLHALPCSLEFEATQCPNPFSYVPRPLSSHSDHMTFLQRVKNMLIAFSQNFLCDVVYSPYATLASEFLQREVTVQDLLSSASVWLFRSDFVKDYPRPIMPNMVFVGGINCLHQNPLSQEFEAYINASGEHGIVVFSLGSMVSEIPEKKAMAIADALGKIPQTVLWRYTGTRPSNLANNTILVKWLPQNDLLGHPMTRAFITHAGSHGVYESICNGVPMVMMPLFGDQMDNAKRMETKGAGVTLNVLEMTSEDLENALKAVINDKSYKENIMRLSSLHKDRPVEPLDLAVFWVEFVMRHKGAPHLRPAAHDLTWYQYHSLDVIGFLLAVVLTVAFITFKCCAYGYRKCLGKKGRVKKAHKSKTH
Protocol: SN-38 glucuronidation activity was determined with a slight modification of a previously published method[13].

[2] = biological target: T1, UGT1A1; conditions: fm is 1; clinical doses
[3] = clinical study; ref [16]; cited from earlier work
[4] = biological target: T2, UGT1A9 (Homo sapiens, UniProt O60656); conditions: 4-MU substrate
T2 sequence (O60656 26-530): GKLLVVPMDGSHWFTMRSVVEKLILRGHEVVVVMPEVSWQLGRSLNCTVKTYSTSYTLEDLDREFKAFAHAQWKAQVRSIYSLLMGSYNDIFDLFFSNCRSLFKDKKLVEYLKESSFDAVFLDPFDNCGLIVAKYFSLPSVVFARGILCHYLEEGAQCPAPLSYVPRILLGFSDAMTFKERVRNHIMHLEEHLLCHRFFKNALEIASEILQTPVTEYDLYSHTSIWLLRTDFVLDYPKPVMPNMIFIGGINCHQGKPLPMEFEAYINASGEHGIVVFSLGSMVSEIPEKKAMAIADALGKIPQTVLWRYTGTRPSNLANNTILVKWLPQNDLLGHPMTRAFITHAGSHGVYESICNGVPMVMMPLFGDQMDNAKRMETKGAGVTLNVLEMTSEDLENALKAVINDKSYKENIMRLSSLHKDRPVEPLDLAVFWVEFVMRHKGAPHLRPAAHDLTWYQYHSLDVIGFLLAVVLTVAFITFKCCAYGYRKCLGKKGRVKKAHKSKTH

SMILES	inhibition type, UGT1A1 [1]	Predicted increase in AUC of UGT1A1 substrates (4-MU and SN-38) [2]	Increase in the AUC of SN-38 on co-administration with irinotecan [3]	inhibition type, UGT1A9 [4]
CS(=O)(=O)CCNCc1ccc(-c2ccc3ncnc(Nc4ccc(OCc5cccc(F)c5)c(Cl)c4)c3c2)o1 [Lapatinib, lapatinib]	non-competitive	~ 25%	41% and ~ 40%	–
COc1cc2c(Nc3ccc(Br)cc3F)ncnc2cc1OCC1CCN(C)CC1 [Vandetanib, vandetanib]	–	–	–	mixed
